Test results from US6525001B1, “Substituted pyrimidine and pyridine herbicides” (Mid-American Commercialization Corporation, priority 1997, dated 2003).

Columns and labels:
Assay in all cases: Test B pre-/postemergence
Type in all cases: in vivo
Set-up in all cases: key: 0 is no effect; 10 is complete control
[1] = test system: bedstraw (Galium aparine)
In short: (§1)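 Response scores run from 0, meaning no effect, to 10, meaning complete control, assigned by eye relative to controls twelve to sixteen days after spraying. Treatment was both preemergence on planted seed and postemergence on plants at the 1- to 4-leaf stage.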

[2] = test system: blackgrass (Alopecurus myosuroides)
In short: as §1

[3] = test system: broadleaf signalgrass (Brachiaria decumbens); conditions: Preemergence
In short: as §1

[4] = test system: cocklebur (Xanthium strumarium)
In short: as §1

corn (Zea mays) = test system: corn (Zea mays)
In short: as §1

[5] = test system: crabgrass (Digitaria sanguinalis)
In short: as §1

[6] = test system: giant foxtail (Setaria faberii)
In short: as §1

[7] = test system: momingglory (Ipomoea hederacea)
In short: as §1

[8] = test system: pigweed (Amaranthus retroflexus)
In short: as §1

[9] = test system: purple nutsedge (Cyperus rotundus)
In short: as §1

[10] = test system: sugar beet (Beta vulgaris)
In short: as §1

[11] = test system: velvetleaf (Abutilon theophrasti)
In short: as §1

[12] = test system: wheat (Triticum aestivum)
In short: as §1

wild oat (Avena fatua) = test system: wild oat (Avena fatua)
In short: as §1

## Cc1cnc(-c2ccc(Cl)cc2)nc1Cn1ccc(C(F)(F)F)n1 [Compound 6]
[1]; Rate 62 g/ha, Postemergence
  Plant response rating, Bedstraw: 5
[1]; Rate 62 g/ha, Preemergence
  Bedstraw plant response rating: 0
[1]; Rate 125 g/ha, Postemergence
  Plant response rating, Bedstraw: 7
[1]; Rate 125 g/ha, Preemergence
  Bedstraw plant response rating: 0
[1]; Rate 250 g/ha, Postemergence
  Plant response rating, Bedstraw: 7
[1]; Rate 250 g/ha, Preemergence
  Plant response rating, Bedstraw: 0
[1]; Rate 500 g/ha, Postemergence
  Plant response rating, Bedstraw: 8
[1]; Rate 500 g/ha, Preemergence
  Plant response rating, Bedstraw: 5
[2]; Rate 62 g/ha, Postemergence
  Plant response rating, Blackgrass: 0
[2]; Rate 62 g/ha, Preemergence
  Blackgrass plant response rating: 0
[2]; Rate 125 g/ha, Postemergence
  Plant response rating, Blackgrass: 2
[2]; Rate 125 g/ha, Preemergence
  Blackgrass plant response rating: 0
[2]; Rate 250 g/ha, Postemergence
  Plant response rating, Blackgrass: 2
[2]; Rate 250 g/ha, Preemergence
  Plant response rating, Blackgrass: 0
[2]; Rate 500 g/ha, Postemergence
  Plant response rating, Blackgrass: 2
[2]; Rate 500 g/ha, Preemergence
  Plant response rating, Blackgrass: 4
[3]; Rate 62 g/ha
  B. signalgrass plant response rating: 1
[3]; Rate 125 g/ha
  B. signalgrass plant response rating: 4
[3]; Rate 250 g/ha
  Plant response rating, B. signalgrass: 9
[3]; Rate 500 g/ha
  Plant response rating, B. signalgrass: 9
[4]; Rate 62 g/ha, Postemergence
  Plant response rating, Cocklebur: 5
[4]; Rate 62 g/ha, Preemergence
  Cocklebur plant response rating: 0
[4]; Rate 125 g/ha, Postemergence
  Plant response rating, Cocklebur: 6
[4]; Rate 125 g/ha, Preemergence
  Cocklebur plant response rating: 0
[4]; Rate 250 g/ha, Postemergence
  Plant response rating, Cocklebur: 7
[4]; Rate 250 g/ha, Preemergence
  Plant response rating, Cocklebur: 0
[4]; Rate 500 g/ha, Postemergence
  Plant response rating, Cocklebur: 7
[4]; Rate 500 g/ha, Preemergence
  Plant response rating, Cocklebur: 0
Corn (Zea mays); Rate 62 g/ha, Postemergence
  Plant response rating, Corn: 3
Corn (Zea mays); Rate 62 g/ha, Preemergence
  Corn plant response rating: 0
Corn (Zea mays); Rate 125 g/ha, Postemergence
  Plant response rating, Corn: 3
Corn (Zea mays); Rate 125 g/ha, Preemergence
  Corn plant response rating: 0
Corn (Zea mays); Rate 250 g/ha, Postemergence
  Plant response rating, Corn: 3
Corn (Zea mays); Rate 250 g/ha, Preemergence
  Plant response rating, Corn: 0
Corn (Zea mays); Rate 500 g/ha, Postemergence
  Plant response rating, Corn: 3
Corn (Zea mays); Rate 500 g/ha, Preemergence
  Plant response rating, Corn: 0
[5]; Rate 62 g/ha, Postemergence
  Plant response rating, Crabgrass: 5
[5]; Rate 62 g/ha, Preemergence
  Crabgrass plant response rating: 1
[5]; Rate 125 g/ha, Postemergence
  Plant response rating, Crabgrass: 8
[5]; Rate 125 g/ha, Preemergence
  Crabgrass plant response rating: 2
[5]; Rate 250 g/ha, Postemergence
  Plant response rating, Crabgrass: 8
[5]; Rate 250 g/ha, Preemergence
  Plant response rating, Crabgrass: 8
[5]; Rate 500 g/ha, Postemergence
  Plant response rating, Crabgrass: 9
[5]; Rate 500 g/ha, Preemergence
  Plant response rating, Crabgrass: 10
[6]; Rate 62 g/ha, Preemergence
  Giant foxtail plant response rating: 2
[6]; Rate 125 g/ha, Postemergence
  Plant response rating, Giant foxtail: 4
[6]; Rate 125 g/ha, Preemergence
  Giant foxtail plant response rating: 6
[6]; Rate 250 g/ha, Postemergence
  Plant response rating, Giant foxtail: 5
[6]; Rate 250 g/ha, Preemergence
  Plant response rating, Giant foxtail: 9
[6]; Rate 500 g/ha, Postemergence
  Plant response rating, Giant foxtail: 6
[6]; Rate 500 g/ha, Preemergence
  Plant response rating, Giant foxtail: 10
[7]; Rate 62 g/ha, Postemergence
  Plant response rating, Morningglory: 3
[7]; Rate 62 g/ha, Preemergence
  Morningglory plant response rating: 1
[7]; Rate 125 g/ha, Postemergence
  Plant response rating, Morningglory: 8
[7]; Rate 125 g/ha, Preemergence
  Morningglory plant response rating: 1
[7]; Rate 250 g/ha, Postemergence
  Plant response rating, Morningglory: 8
[7]; Rate 250 g/ha, Preemergence
  Plant response rating, Morningglory: 2
[7]; Rate 500 g/ha, Postemergence
  Plant response rating, Morningglory: 8
[7]; Rate 500 g/ha, Preemergence
  Plant response rating, Morningglory: 2
[8]; Rate 62 g/ha, Postemergence
  Plant response rating, Redroot pigweed: 5
[8]; Rate 62 g/ha, Preemergence
  Redroot pigweed plant response rating: 0
[8]; Rate 125 g/ha, Postemergence
  Plant response rating, Redroot pigweed: 7
[8]; Rate 125 g/ha, Preemergence
  Redroot pigweed plant response rating: 3
[8]; Rate 250 g/ha, Postemergence
  Plant response rating, Redroot pigweed: 9
[8]; Rate 250 g/ha, Preemergence
  Plant response rating, Redroot pigweed: 6
[8]; Rate 500 g/ha, Postemergence
  Plant response rating, Redroot pigweed: 9
[8]; Rate 500 g/ha, Preemergence
  Plant response rating, Redroot pigweed: 6
[9]; Rate 62 g/ha, Postemergence
  Plant response rating, Nutsedge: 2
[9]; Rate 62 g/ha, Preemergence
  Nutsedge plant response rating: 0
[9]; Rate 125 g/ha, Preemergence
  Nutsedge plant response rating: 0
[9]; Rate 250 g/ha, Postemergence
  Plant response rating, Nutsedge: 2
[9]; Rate 250 g/ha, Preemergence
  Plant response rating, Nutsedge: 0
[9]; Rate 500 g/ha, Postemergence
  Plant response rating, Nutsedge: 3
[9]; Rate 500 g/ha, Preemergence
  Plant response rating, Nutsedge: 0
[10]; Rate 62 g/ha, Postemergence
  Plant response rating, Sugarbeets: 7
[10]; Rate 62 g/ha, Preemergence
  Sugarbeets plant response rating: 0
[10]; Rate 125 g/ha, Postemergence
  Plant response rating, Sugarbeets: 8
[10]; Rate 125 g/ha, Preemergence
  Sugarbeets plant response rating: 3
[10]; Rate 250 g/ha, Postemergence
  Plant response rating, Sugarbeets: 8
[10]; Rate 250 g/ha, Preemergence
  Plant response rating, Sugarbeets: 9
[10]; Rate 500 g/ha, Postemergence
  Plant response rating, Sugarbeets: 9
[10]; Rate 500 g/ha, Preemergence
  Plant response rating, Sugarbeets: 10
[11]; Rate 62 g/ha, Postemergence
  Plant response rating, Velvetleaf: 7
[11]; Rate 62 g/ha, Preemergence
  Velvetleaf plant response rating: 1
[11]; Rate 125 g/ha, Postemergence
  Plant response rating, Velvetleaf: 7
[11]; Rate 125 g/ha, Preemergence
  Velvetleaf plant response rating: 2
[11]; Rate 250 g/ha, Postemergence
  Plant response rating, Velvetleaf: 8
[11]; Rate 250 g/ha, Preemergence
  Plant response rating, Velvetleaf: 2
[11]; Rate 500 g/ha, Postemergence
  Plant response rating, Velvetleaf: 8
[11]; Rate 500 g/ha, Preemergence
  Plant response rating, Velvetleaf: 3
[12]; Rate 62 g/ha, Postemergence
  Plant response rating, Wheat: 1
[12]; Rate 62 g/ha, Preemergence
  Wheat plant response rating: 0
[12]; Rate 125 g/ha, Postemergence
  Plant response rating, Wheat: 2
[12]; Rate 125 g/ha, Preemergence
  Wheat plant response rating: 0
[12]; Rate 250 g/ha, Postemergence
  Plant response rating, Wheat: 2
[12]; Rate 250 g/ha, Preemergence
  Plant response rating, Wheat: 0
[12]; Rate 500 g/ha, Postemergence
  Plant response rating, Wheat: 3
[12]; Rate 500 g/ha, Preemergence
  Plant response rating, Wheat: 0
Wild oat (Avena fatua); Rate 62 g/ha, Postemergence
  Plant response rating, Wild oats: 0
Wild oat (Avena fatua); Rate 62 g/ha, Preemergence
  Wild oats plant response rating: 0
Wild oat (Avena fatua); Rate 125 g/ha, Postemergence
  Plant response rating, Wild oats: 3
Wild oat (Avena fatua); Rate 125 g/ha, Preemergence
  Wild oats plant response rating: 0
Wild oat (Avena fatua); Rate 250 g/ha, Postemergence
  Plant response rating, Wild oats: 3
Wild oat (Avena fatua); Rate 250 g/ha, Preemergence
  Plant response rating, Wild oats: 2
Wild oat (Avena fatua); Rate 500 g/ha, Postemergence
  Plant response rating, Wild oats: 3
Wild oat (Avena fatua); Rate 500 g/ha, Preemergence
  Plant response rating, Wild oats: 3
